Source: patent US20260209234A1, “SUBSTITUTED DIHYDROPYRROLO[3,4-D]PYRIMIDINE COMPOUNDS AND THEIR USE IN TREATING MEDICAL CONDITIONS” (Karuna Therapeutics, Inc., priority 2022, published 2026)

What was measured:
rM4 receptors = molecular target: T1, rM4 receptors (Rattus norvegicus, UniProt P08485); test: Rat M4 PAM pERK assay; assay type: cell-based; details: CHO cells expressing rM4; EC20 of acetylcholine (10 nM final); TR-FRET
T1 construct: expressed in transfected cells; host or cells: CHO cells
T1 sequence (P08485 1-478): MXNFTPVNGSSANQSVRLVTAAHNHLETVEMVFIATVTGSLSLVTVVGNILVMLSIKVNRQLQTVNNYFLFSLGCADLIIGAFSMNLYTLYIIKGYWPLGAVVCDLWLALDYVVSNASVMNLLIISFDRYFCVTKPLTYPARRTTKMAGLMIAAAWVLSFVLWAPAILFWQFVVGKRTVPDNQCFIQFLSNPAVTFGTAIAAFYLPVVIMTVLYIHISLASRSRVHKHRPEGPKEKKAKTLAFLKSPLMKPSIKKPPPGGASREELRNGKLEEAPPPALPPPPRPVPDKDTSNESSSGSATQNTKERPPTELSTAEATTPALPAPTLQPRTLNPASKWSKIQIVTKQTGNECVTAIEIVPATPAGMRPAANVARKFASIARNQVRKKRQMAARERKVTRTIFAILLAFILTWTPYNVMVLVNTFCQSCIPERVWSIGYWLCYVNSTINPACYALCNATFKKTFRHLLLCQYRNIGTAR
Procedure: (§1) Chinese hamster ovary (CHO) cells expressing either hM4 or rM4 receptors were frozen in assay ready vials (5×10^6 cells/vial) after bulking-up in culture. The day before an assay, vial(s) were thawed and cells seeded in 384 well white proxiplates at 1000/well for hM4 cells and at 2000/well for rM4 cells, in 10 μL of growth media (Hams/F12 with glutamax and 10% FCS) and incubated overnight at 37° C./5% CO2.
(§2) On the following morning, the growth media was removed by ‘flicking out’ over a bin, patting the inverted plate onto tissue, and then replacing with 10 μL of wash media (Hams/F12 with glutamax and 8 mM HEPES, NB: serum free). Then, the wash media was removed in the same way and replaced with 8 μL/well of the serum free media. Plates were then re-incubated for a further 4 hours at 37° C./5% CO2.
(§3) Compounds for testing were solubilized to 10 mM in DMSO and compound addition plates, consisting of ten-point concentration response curves (CRC) in duplicate points (10 μM top concentration, 1/2 log dilution series), were prepared by acoustic dispensing and the compound management group.
(§4) After the 4-hour incubation in serum free media, a 4 μL aliquot of the 3× compound solution containing an EC20 of acetylcholine (10 nM final concentration) was added to the cell plate using a 384 well plate to plate transfer. Then, the plate lid was replaced, and the cells incubated for 5 mins at 37° C./5% CO2. Following this final incubation, all cellular processes were stopped by the addition of 4 μL/well of lysis and blocking buffer and plates were incubated for 30 minutes at RT on an orbital shaker (gentle setting). Then, a final addition of 4 μL/well of antibody detection mix, containing both the Europium-Cryptate (donor) and d2 (acceptor) tagged detection components, was added followed by a further 2-hour incubation at RT, and then the plate was read using a TR-FRET (time resolved fluorescence resonance energy transfer) based protocol.

hM4 receptors = molecular target: T2, hM4 receptors (Homo sapiens, UniProt P08173); test: Human M4 PAM pERK assay; assay type: cell-based; details: CHO cells expressing hM4; EC20 of acetylcholine (10 nM final); TR-FRET
T2 construct: expressed in transfected cells; host or cells: CHO cells
T2 sequence (P08173 1-479): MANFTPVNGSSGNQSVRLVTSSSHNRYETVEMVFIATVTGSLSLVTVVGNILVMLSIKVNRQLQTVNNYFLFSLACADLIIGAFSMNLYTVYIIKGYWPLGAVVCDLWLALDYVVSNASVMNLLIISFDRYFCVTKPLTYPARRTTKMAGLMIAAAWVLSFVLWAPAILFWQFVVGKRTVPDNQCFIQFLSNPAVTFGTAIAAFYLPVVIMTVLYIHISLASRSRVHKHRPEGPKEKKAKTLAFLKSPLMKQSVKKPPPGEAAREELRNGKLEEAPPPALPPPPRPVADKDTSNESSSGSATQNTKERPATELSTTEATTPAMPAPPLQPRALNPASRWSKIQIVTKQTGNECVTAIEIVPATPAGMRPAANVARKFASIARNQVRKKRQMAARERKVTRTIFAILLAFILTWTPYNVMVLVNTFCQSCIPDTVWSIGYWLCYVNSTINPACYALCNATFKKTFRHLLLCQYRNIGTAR
Procedure: as §1, §2, §3, §4

human M4 receptor = molecular target: T3, human M4 receptor (Homo sapiens, UniProt P08173); test: M4 GTPγS PAM assay; assay type: biochemical; details: membranes of CHO-K1 cells stably expressing human M4; EC20 acetylcholine 40 nM; 35S-GTP
T3 construct: expressed in transfected cells
T3 sequence (P08173 1-479): T2 sequence (P08173 1-479)
Procedure: The M4 GTPγS PAM method was used. Membranes were prepared for GTPgS binding assays from CHO-K1 cells stably expressing human M4 receptor. Briefly, cells were grown in 5-layer cell culture flasks. Cells were washed with 50 mL of PBS and then dissociated with 0.05% trypsin. Dissociated cells were then collected by centrifugation at 650×g for 8 minutes at 4° C. Pellets were washed again in PBS by centrifugation and resuspended in 30 mL of 20 mM HEPES, 10 mM EDTA, pH 7.4. After sitting on ice for 30 min, membranes were collected by centrifugation at 50000×g for 15′ at 4° C., resuspended in 30 mL of 20 mM HEPES, 0.1 mM EDTA, pH 7.4 and collected again by centrifugation. Pellets were then washed twice by centrifugation in 30 mL of 20 mM HEPES, pH 7.4, and stored at −80° C. until the day of the assay. On the day of the assay, pellets were thawed on ice and resuspended in 1 mL of 20 mM HEPES, pH 7.4, 10 mM MgCl2, 100 mM NaCl using dounce homogenization. Membrane protein concentration is determined by BCA protein assay (Promega, Madison, WI) according to Promega guidelines.
On the day of the assay, serial dilutions of test PAM compounds were brought up in assay buffer (20 mM HEPES, 10 mM MgCl2, 100 mM NaCl) at 4× final assay concentration. […] of membrane homogenates (containing […] of membrane protein) were prepared in assay buffer supplemented with GDP at 4× final assay concentration (final assay concentration of GDP is 5 μM for M2 and 0.1 μM for M4) and dispensed into 96 well polypropylene, U-bottom Greiner plates. […] of vehicle or test PAM compound at 4× of final assay concentration diluted in the assay buffer were added to membrane and plates are incubated for 10-15 minutes at room temperature with gentle shaking. Then, […] of EC20 acetylcholine in assay buffer at 4× final assay concentration was added to assay plates (EC20 final assay concentrations was 40 nM for human M4).
Plates were then incubated, with shaking, for an additional 10-15 minutes. […] of 0.4 nM 35S-GTP (Perkin Elmer, Waltham, MA) in assay buffer was added to assay mixtures. The binding reaction is left on the shaker for 1 hour at room temperature. Membranes in assay reactions were then transferred to GF/C filter plates (Unifilter, Perkin Elmer) and washed three times using a FilterMate Harvester (Perkin Elmer) with cold assay buffer containing no GDP. Filter plates were then dried at 40° C. overnight followed by the addition of […] of Beta Plate Scintillation liquid. Plates are top and bottom sealed before being read on TopCount scintillation counter (Perkin Elmer, Waltham, MA).

| EC50 (rM4 receptors) [nM] | EC50 (hM4 receptors) [nM] | EC50 (human M4 receptor) [nM] | Structure (SMILES) |
| --- | --- | --- | --- |
| ≥ 2000 | ≥ 2000 | 500 to 2000 | COc1nc(C#N)nc2c1C(C)N(C(=O)CC1CN(c3ccnc(OC4CC4)c3)C1)C2 (single isomer, unassigned) [Compound I-13, 6-(2-(1-(2-Cyclopropoxypyridin-4-yl)azetidin-3-yl)acetyl)-4-methoxy-5-methyl-6,7-dihydro-5H-pyrrolo[3,4-d]pyrimidine-2-carbonitrile] |
| 500 to 2000 | ≤ 100 | ≤ 100 | COc1nc(C#N)nc2c1C(C)N(C(=O)CC1CN(c3ccnc(OC4CC4)c3)C1)C2 (single isomer, unassigned) [Compound I-14, 6-(2-(1-(2-Cyclopropoxypyridin-4-yl)azetidin-3-yl)acetyl)-4-methoxy-5-methyl-6,7-dihydro-5H-pyrrolo[3,4-d]pyrimidine-2-carbonitrile] |
| ≥ 2000 | ≥ 2000 | ≥ 2000 | COc1nc(C#N)nc2c1C(C)N(C(=O)CC1CN(c3cccc(C(F)(F)F)c3)C1)C2 (single isomer, unassigned) [Compound I-15, 4-Methoxy-5-methyl-6-(2-(1-(3-(trifluoromethyl)phenyl)azetidin-3-yl)acetyl)-6,7-dihydro-5H-pyrrolo[3,4-d]pyrimidine-2-carbonitrile] |
| 100 to 500 | 100 to 500 | 100 to 500 | COc1nc(C#N)nc2c1C(C)N(C(=O)CC1CN(c3cccc(F)c3F)C1)C2 (single isomer, unassigned) [Compound I-19, 6-(2-(1-(2,3-Difluorophenyl)azetidin-3-yl)acetyl)-4-methoxy-5-methyl-6,7-dihydro-5H-pyrrolo[3,4-d]pyrimidine-2-carbonitrile] |
| ≥ 2000 | ≥ 2000 | ≥ 2000 | COc1nc(C#N)nc2c1C(C)N(C(=O)CC1CN(c3cccc(F)c3F)C1)C2 (single isomer, unassigned) [Compound I-20, 6-(2-(1-(2,3-Difluorophenyl)azetidin-3-yl)acetyl)-4-methoxy-5-methyl-6,7-dihydro-5H-pyrrolo[3,4-d]pyrimidine-2-carbonitrile] |
| ≥ 2000 | ≥ 2000 | ≥ 2000 | COc1nc(C#N)nc2c1C(C)N(C(=O)CC1CN(c3ccc(C4CC4)c(F)c3)C1)C2 (single isomer, unassigned) [Compound I-21, 6-(2-(1-(4-Cyclopropyl-3-fluorophenyl)azetidin-3-yl)acetyl)-4-methoxy-5-methyl-6,7-dihydro-5H-pyrrolo[3,4-d]pyrimidine-2-carbonitrile] |
| 100 to 500 | 100 to 500 | 100 to 500 | COc1nc(C#N)nc2c1C(C)N(C(=O)CC1CN(c3ccc(C4CC4)c(F)c3)C1)C2 (single isomer, unassigned) [Compound I-22, 6-(2-(1-(4-Cyclopropyl-3-fluorophenyl)azetidin-3-yl)acetyl)-4-methoxy-5-methyl-6,7-dihydro-5H-pyrrolo[3,4-d]pyrimidine-2-carbonitrile] |
| 100 to 500 | ≤ 100 | ≤ 100 | COc1nc(C#N)nc2c1C(C)N(C(=O)CC1CN(c3ccc(C#N)cc3)C1)C2 (single isomer, unassigned) [Compound I-23, 6-(2-(1-(4-Cyanophenyl)azetidin-3-yl)acetyl)-4-methoxy-5-methyl-6,7-dihydro-5H-pyrrolo[3,4-d]pyrimidine-2-carbonitrile] |
| ≥ 2000 | ≥ 2000 | ≥ 2000 | COc1nc(C#N)nc2c1C(C)N(C(=O)CC1CN(c3cnnc(C(F)(F)F)c3)C1)C2 (single isomer, unassigned) [Compound I-24, 4-Methoxy-5-methyl-6-(2-(1-(6-(trifluoromethyl)pyridazin-4-yl)azetidin-3-yl)acetyl)-6,7-dihydro-5H-pyrrolo[3,4-d]pyrimidine-2-carbonitrile] |
| 500 to 2000 | 100 to 500 | 100 to 500 | COc1nc(C#N)nc2c1C(C)N(C(=O)CC1CN(c3cnnc(C(F)(F)F)c3)C1)C2 (single isomer, unassigned) [Compound I-25, 4-Methoxy-5-methyl-6-(2-(1-(6-(trifluoromethyl)pyridazin-4-yl)azetidin-3-yl)acetyl)-6,7-dihydro-5H-pyrrolo[3,4-d]pyrimidine-2-carbonitrile] |
| 500 to 2000 | ≤ 100 | ≥ 2000 | COc1nc(C#N)nc2c1C(C)N(C(=O)CC1CN(c3cncnc3)C1)C2 (single isomer, unassigned) [Compound I-27, 4-Methoxy-5-methyl-6-(2-(1-(pyrimidin-5-yl)azetidin-3-yl)acetyl)-6,7-dihydro-5H-pyrrolo[3,4-d]pyrimidine-2-carbonitrile] |
| 100 to 500 | ≤ 100 | ≤ 100 | COc1nc(C#N)nc2c1C(C)N(C(=O)CC1CN(c3ccnc(OC(F)F)c3)C1)C2 (single isomer, unassigned) [Compound I-28, 6-(2-(1-(2-(Difluoromethoxy)pyridin-4-yl)azetidin-3-yl)acetyl)-4-methoxy-5-methyl-6,7-dihydro-5H-pyrrolo[3,4-d]pyrimidine-2-carbonitrile] |
